# Source: US6881741B2 (ViroChem Pharma Inc., priority 2001, dated 2005)
# Counter-ions that a name gives are not always drawn.
# Target: recombinant HCV NS5B (HCV RNA-dependent RNA polymerase) (Hepatitis C virus genotype 1b, UniProt P26663)
# Assay: biochemical
# Settings: related polymerase activity (Example 27 list); read-out: IC50
# Sequence of recombinant HCV NS5B (HCV RNA-dependent RNA polymerase) (P26663 2420-3010 limits assumed): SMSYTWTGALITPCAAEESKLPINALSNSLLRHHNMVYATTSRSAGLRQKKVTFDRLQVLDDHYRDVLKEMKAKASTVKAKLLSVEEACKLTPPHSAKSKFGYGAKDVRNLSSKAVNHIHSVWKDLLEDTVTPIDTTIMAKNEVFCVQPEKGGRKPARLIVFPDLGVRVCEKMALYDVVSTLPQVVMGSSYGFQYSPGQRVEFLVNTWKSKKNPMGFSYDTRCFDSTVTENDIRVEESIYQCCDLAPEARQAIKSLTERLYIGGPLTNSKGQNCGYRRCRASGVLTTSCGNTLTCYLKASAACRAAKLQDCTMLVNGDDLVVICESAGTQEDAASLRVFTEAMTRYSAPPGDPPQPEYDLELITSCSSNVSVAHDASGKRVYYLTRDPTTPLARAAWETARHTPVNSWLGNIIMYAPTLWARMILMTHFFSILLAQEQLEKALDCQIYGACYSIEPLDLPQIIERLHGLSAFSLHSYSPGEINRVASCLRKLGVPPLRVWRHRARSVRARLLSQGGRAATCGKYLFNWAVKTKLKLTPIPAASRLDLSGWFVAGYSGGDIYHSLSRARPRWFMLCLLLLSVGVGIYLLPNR
row,Structure (SMILES),IC50 [µM]
1,"O=C(O)c1sc(-c2ccccc2)cc1NS(=O)(=O)c1c(F)cc(F)cc1F [Compound 151, 5-PHENYL-3-(2,4,6-TRIFLUORO-BENZENESULFONYLAMINO)-THIOPHENE-2-CARBOXYLIC ACID]",< 5
2,"COc1ccc(S(=O)(=O)Nc2cc(-c3ccccc3)sc2C(=O)O)c([N+](=O)[O-])c1 [Compound 152, 3-(4-METHOXY-2-NITRO-BENZENESULFONYLAMINO)-5-PHENYL-THIOPHENE-2-CARBOXYLIC ACID]",5 to 20
3,"O=C(O)c1sc(-c2ccccc2)cc1NS(=O)(=O)c1ccc(Cl)c(Cl)c1Cl [Compound 153, 5-PHENYL-3-(2,3,4-TRICHLORO-BENZENESULFONYLAMINO)-THIOPHENE-2-CARBOXYLIC ACID]",< 5
4,"COC(=O)c1cc(S(=O)(=O)Nc2cc(-c3ccccc3)sc2C(=O)O)oc1C [Compound 154, 5-(2-CARBOXY-5-PHENYL-THIOPHEN-3-YLSULFAMOYL)-2-METHYL-FURAN-3-CARBOXYLIC ACID METHYL ESTER]",< 5
5,"CCOC(=O)c1c(S(=O)(=O)Nc2cc(-c3ccccc3)sc2C(=O)O)c(-c2ccccc2)n(-c2ccccc2)c1C [Compound 155, 4-(2-CARBOXY-5-PHENYL-THIOPHEN-3-YLSULFAMOYL)-2-METHYL-1,5-DIPHENYL-1H-PYRROLE-3-CARBOXYLIC ACID ETHYL ESTER]",< 5
6,"O=C(O)c1sc(-c2ccccc2)cc1NC(=O)N1CCN(c2cccc(C(F)(F)F)c2)CC1 [Compound 156, 5-PHENYL-3-{[4-(3-TRIFLUOROMETHYL-PHENYL)-PIPERAZINE-1-CARBONYL]-AMIN}-THIOPHENE-2-CARBOXYLIC ACID]",5 to 20
7,"O=C(O)c1sc(-c2ccccc2)cc1NC(=O)N1CCN(c2ccc(F)cc2)CC1 [Compound 157, 3-{[4-(4-FLUORO-PHENYL)-PIPERAZINE-1-CARBONYL]-AMINO}-5-PHENYL-THIOPHENE-2-CARBOXYLIC ACID]",> 20
8,"Cc1cccc(C)c1N1CCN(C(=O)Nc2cc(-c3ccccc3)sc2C(=O)O)CC1 [Compound 158, 3-{[4-(2,6-DIMETHYL-PHENYL)-PIPERAZINE-1-CARBONYL]-AMINO}-5-PHENYL-THIOPHENE-2-CARBOXYLIC ACID]",> 20
9,"O=C(O)c1sc(-c2ccccc2)cc1NC(=O)N1CCN(c2ccccc2Cl)CC1 [Compound 159, 3-{[4-(2-CHLORO-PHENYL)-PIPERAZINE-1-CARBONYL]-AMINO}-5-PHENYL-THIOPHENE-2-CARBOXYLIC ACID]",5 to 20
10,"O=C(O)c1sc(-c2ccccc2)cc1NC(=O)N1CCN(c2cccc(Cl)c2)CC1 [Compound 160, 3-{[4-(3-CHLORO-PHENYL)-PIPERAZINE-1-CARBONYL]-AMINO}-5-PHENYL-THIOPHENE-2-CARBOXYLIC ACID]",5 to 20
11,"Cc1ccccc1S(=O)(=O)Nc1cc(-c2cc(NS(=O)(=O)c3ccccc3C)c(C(=O)O)s2)sc1C(=O)O [Compound 161, 4,4′-BIS-(TOLUENE-2-SULFONYLAMINO)-[2,2′]BITHIOPHENYL-5,5′-DICARBOXYLIC ACID]",< 5
12,"C=CCN(C(=O)c1ccc(C)cc1)c1cc(-c2ccccc2)sc1C(=O)O [Compound 162, 3-[ALLYL-(4-METHYL-BENZOYL)-AMINO]-5-PHENYL-THIOPHENE-2-CARBOXYLIC ACID]",< 5
13,"Cc1ccccc1S(=O)(=O)Nc1cc(-c2cnn(S(=O)(=O)N(C)C)c2)sc1C(=O)O [Compound 163, 5-(1-DIMETHYLSULFAMOYL-1H-PYRAZOL-4-YL)-3-(TOLUENE-2-SULFONYLAMINO)-THIOPHENE-2-CARBOXYLIC ACID]",5 to 20
14,"Cc1ccccc1S(=O)(=O)Nc1cc(-c2cccc(N)c2)sc1C(=O)O [Compound 164, 5-(3-AMINO-PHENYL)-3-(TOLUENE-2-SULFONYLAMINO)-THIOPHENE-2-CARBOXYLIC ACID]",5 to 20
15,"Cc1ccccc1S(=O)(=O)Nc1cc(-c2ccc(N)cc2)sc1C(=O)O [Compound 165, 5-(4-AMINO-PHENYL)-3-(TOLUENE-2-SULFONYLAMINO)-THIOPHENE-2-CARBOXYLIC ACID]",5 to 20
16,"CC(=O)c1ccc(-c2cc(NS(=O)(=O)c3ccccc3C)c(C(=O)O)s2)cc1 [Compound 166, 5-(4-ACETYL-PHENYL)-3-(TOLUENE-2-SULFONYLAMINO)-THIOPHENE-2-CARBOXYLIC ACID]",< 5
17,"CCOC(=O)c1c(C)[nH]c(C)c1S(=O)(=O)Nc1cc(-c2ccccc2)sc1C(=O)O [Compound 167, 4-(2-CARBOXY-5-PHENYL-THIOPHEN-3-YLSULFAMOYL)-2,5-DIMETHYL-1H-PYRROLE-3-CARBOXYLIC ACID ETHYL ESTER]",5 to 20
18,"CCOC(=O)c1c(C)c(S(=O)(=O)Nc2cc(-c3ccccc3)sc2C(=O)O)c(-c2ccc(Cl)cc2)n1-c1ccccc1 [Compound 168, 4-(2-CARBOXY-5-PHENYL-THIOPHEN-3-YLSULFAMOYL)-5-(4-CHLORO-PHENYL)-3-METHYL-1-PHENYL-1H-PYRROLE-2-CARBOXYLIC ACID ETHYL ESTER]",5 to 20
19,"O=C(O)c1sc(-c2ccccc2)cc1NS(=O)(=O)c1cc(Cl)c(O)c(Cl)c1 [Compound 169, 3-(3,5-DICHLORO-4-HYDROXY-BENZENESULFONYLAMINO)-5-PHENYL-THIOPHENE-2-CARBOXYLIC ACID]",5 to 20
20,"Cc1ccccc1S(=O)(=O)Nc1cc(-c2cn[nH]c2)sc1C(=O)O [Compound 170, 5-(1H-PYRAZOL-4-YL)-3-(TOLUENE-2-SULFONYLAMINO)-THIOPHENE-2-CARBOXYLIC ACID]",< 5

row,Structure (SMILES),IC50 [µM]
1,"Cc1ccccc1S(=O)(=O)Nc1cc(-c2cccc(O)c2)sc1C(=O)O [Compound 171, 5-(3-HYDROXY-PHENYL)-3-(TOLUENE-2-SULFONYLAMINO)-THIOPHENE-2-CARBOXYLIC ACID]",< 5
2,"CC(C)CC(=O)N(C)c1cc(-c2ccccc2)sc1C(=O)O [Compound 172, 3-[METHYL-(3-METHYL-BUTYRYL)-AMINO]-5-PHENYL-THIOPHENE-2-CARBOXYLIC ACID]",< 5
3,"CN(C(=O)Cc1ccc(F)cc1)c1cc(-c2ccccc2)sc1C(=O)O [Compound 173, 3-{[2-(4-FLUORO-PHENYL)-ACETYL]-METHYL-AMINO}-5-PHENYL-THIOPHENE-2-CARBOXYLIC ACID]",< 5
4,"CCCCCc1ccc(S(=O)(=O)Nc2cc(-c3ccccc3)sc2C(=O)O)cc1 [Compound 174, 3-(4-PENTYL-BENZENESULFONYLAMINO)-5-PHENYL-THIOPHENE-2-CARBOXYLIC ACID]",5 to 20
5,"CN(C(=O)Cc1ccccc1)c1cc(-c2ccccc2)sc1C(=O)O [Compound 175, 3-(METHYL-PHENYLACETYL-AMINO)-5-PHENYL-THIOPHENE-2-CARBOXYLIC ACID]",< 5
6,"O=C(O)c1sc(-c2ccccc2)cc1NS(=O)(=O)c1cc(OCC(F)(F)F)ccc1OCC(F)(F)F [Compound 176, 3-[2,5-BIS-(2,2,2-TRIFLUORO-ETHOXY)-BENZENESULFONYLAMINO]-5-PHENYL-THIOPHENE-2-CARBOXYLIC ACID]",5 to 20
7,"Cc1ccc(S(=O)(=O)Nc2cc(-c3ccccc3)sc2C(=O)O)c([N+](=O)[O-])c1 [Compound 177, 3-(4-METHYL-2-NITRO-BENZENESULFONYLAMINO)-5-PHENYL-THIOPHENE-2-CARBOXYLIC ACID]",5 to 20
8,"Cc1ccccc1S(=O)(=O)Nc1cc(-c2nccs2)sc1C(=O)O [Compound 178, 5-THIAZOL-2-YL-3-(TOLUENE-2-SULFONYLAMINO)-THIOPHENE-2-CARBOXYLIC ACID]",< 5
9,"O=C(NCCCc1ccccc1)Nc1cc(-c2ccccc2)sc1C(=O)O [Compound 179, 5-PHENYL-3-[3-(3-PHENYL-PROPYL)-UREIDO]-THIOPHENE-2-CARBOXYLIC ACID]",5 to 20
10,"O=C(O)c1sc(-c2ccccc2)cc1NC(=O)N1CCc2ccccc2C1 [Compound 180, 3-[(3,4-DIHYDRO-1H-ISOQUINOLINE-2-CARBONYL)-AMINO]-5-PHENYL-THIOPHENE-2-CARBOXYLIC ACID]",5 to 20
11,"COc1ccc(N2CCN(C(=O)Nc3cc(-c4ccccc4)sc3C(=O)O)CC2)cc1 [Compound 181, 3-{[4-(4-METHOXY-PHENYL)-PIPERAZINE-1-CARBONYL]-AMINO}-5-PHENYL-THIOPHENE-2-CARBOXYLIC ACID]",5 to 20
12,"Cc1cccc(N2CCN(C(=O)Nc3cc(-c4ccccc4)sc3C(=O)O)CC2)n1 [Compound 182, 3-{[4-(6-METHYL-PYRIDIN-2-YL)-PIPERAZINE-1-CARBONYL]-AMINO}-5-PHENYL-THIOPHENE-2-CARBOXYLIC ACID HYDROCHLORIDE]",5 to 20
13,"O=C(O)c1sc(-c2ccccc2)cc1NC(=O)N1CCN(Cc2ccc(Cl)cc2)CC1 [Compound 183, 3-{[4-(4-CHLORO-BENZYL)-PIPERAZINE-1-CARBONYL]-AMINO}-5-PHENYL-THIOPHENE-2-CARBOXYLIC ACID HYDROCHLORIDE]",5 to 20
14,"Cc1ccc(-c2cc(NS(=O)(=O)c3ccccc3C)c(C(=O)O)s2)nc1 [Compound 184, 5-(5-METHYL-PYRIDIN-2-YL)-3-(TOLUENE-2-SULFONYLAMINO)-THIOPHENE-2-CARBOXYLIC ACID]",< 5
15,"CCN(C(=O)c1ccc(C)cc1)c1cc(-c2ccccc2)sc1C(=O)O [Compound 185, 3-[ETHYL-(4-METHYL-BENZOYL)-AMINO]-5-PHENYL-THIOPHENE-2-CARBOXYLIC ACID]",< 5
16,"CN(C(=O)c1sccc1Cl)c1cc(-c2ccccc2)sc1C(=O)O [Compound 186, 3-[(3-CHLORO-THIOPHENE-2-CARBONYL)-METHYL-AMINO]-5-PHENYL-THIOPHENE-2-CARBOXYLIC ACID]",5 to 20
17,"CN(C(=O)c1ccccc1Br)c1cc(-c2ccccc2)sc1C(=O)O [Compound 187, 3-[(2-BROMO-BENZOYL)-METHYL-AMINO]-5-PHENYL-THIOPHENE-2-CARBOXYLIC ACID]",5 to 20
18,"CCCCc1ccc(C(=O)N(C)c2cc(-c3ccccc3)sc2C(=O)O)cc1 [Compound 188, 3-[(4-BUTYL-BENZOYL)-METHYL-AMINO]-5-PHENYL-THIOPHENE-2-CARBOXYLIC ACID]",> 20
19,"O=C(O)c1sc(-c2ccccc2)cc1NS(=O)(=O)c1ccccc1CCl [Compound 189, 3-(2-CHLOROMETHYL-BENZENESULFONYLAMINO)-5-PHENYL-THIOPHENE-2-CARBOXYLIC ACID]",5 to 20
20,"Cc1ccccc1S(=O)(=O)Nc1cc(-c2ccc(O)cc2)sc1C(=O)O [Compound 190, 5-(4-HYDROXY-PHENYL)-3-(TOLUENE-2-SULFONYLAMINO)-THIOPHENE-2-CARBOXYLIC ACID]",< 5
